Tested on: 415267-285-R-J2-PDC complex spheroid viability
Assay: Anticancer human tumor 415267-285-R-J2-PDC patient-derived breast carcinoma cell line growth inhibition [POLQ]
Conditions: for IC50: curve of first compound; for viability, T/C: stronger effect = lower value
Method in brief: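 Three-cell-type spheroids modelling solid tumor plus stroma served as the readout system; POL inhibitors were tested individually and in combination, concentration ranges set by clinical Cmax where known.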

[1] = second compound 0.0316 µM, first compound 0.00316 µM
[2] = second compound 0.0316 µM, first compound 0.01 µM
[3] = second compound 0.0316 µM, first compound 0.0316 µM
[4] = second compound 0.0316 µM, first compound 0.1 µM
[5] = second compound 0.0316 µM, first compound 0.316 µM
[6] = second compound 0.0316 µM, first compound 1 µM
[7] = second compound 0.1 µM, first compound 0.00316 µM
[8] = second compound 0.1 µM, first compound 0.01 µM
[9] = second compound 0.1 µM, first compound 0.0316 µM
[10] = second compound 0.1 µM, first compound 0.1 µM
[11] = second compound 0.1 µM, first compound 0.316 µM
[12] = second compound 0.1 µM, first compound 1 µM
[13] = second compound 0.316 µM, first compound 0.00316 µM
[14] = second compound 0.316 µM, first compound 0.01 µM
[15] = second compound 0.316 µM, first compound 0.0316 µM
[16] = second compound 0.316 µM, first compound 0.1 µM
[17] = second compound 0.316 µM, first compound 0.316 µM
[18] = second compound 0.316 µM, first compound 1 µM
[19] = second compound 1 µM, first compound 0.00316 µM
[20] = second compound 1 µM, first compound 0.01 µM
[21] = second compound 1 µM, first compound 0.0316 µM
[22] = second compound 1 µM, first compound 0.1 µM
[23] = second compound 1 µM, first compound 0.316 µM
[24] = second compound 1 µM, first compound 1 µM
[25] = second compound 3.16 µM, first compound 0.00316 µM
[26] = second compound 3.16 µM, first compound 0.01 µM
[27] = second compound 3.16 µM, first compound 0.0316 µM
[28] = second compound 3.16 µM, first compound 0.1 µM
[29] = second compound 3.16 µM, first compound 0.316 µM
[30] = second compound 3.16 µM, first compound 1 µM
[31] = second compound 10 µM, first compound 0.00316 µM
[32] = second compound 10 µM, first compound 0.01 µM
[33] = second compound 10 µM, first compound 0.0316 µM
[34] = second compound 10 µM, first compound 0.1 µM
[35] = second compound 10 µM, first compound 0.316 µM
[36] = second compound 10 µM, first compound 1 µM
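Note: spheroids exposed to compounds for one week before readout.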
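Throughout, for viability, T/C: luminescence used as stand-in measure of viable cells; 100% = DMSO vehicle control viability.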

C=CCn1c(=O)c2cnc(Nc3ccc(N4CCN(C)CC4)cc3)nc2n1-c1cccc(C(C)(C)O)n1 + COC1C(OC(N)=O)C(O)C(Oc2ccc3c(O)c(NC(=O)c4ccc(O)c(CC=C(C)C)c4)c(=O)oc3c2C)OC1(C)C
IC50 (second compound 0.0316 µM): 347 nM | IC50 (second compound 0.1 µM): 269 nM | IC50 (second compound 0.316 µM): 262 nM | IC50 (second compound 1 µM): 269 nM | IC50 (second compound 3.16 µM): 249 nM | IC50 (second compound 10 µM): 267 nM | viability, T/C [1]: 106% | viability, T/C [2]: 96.1% | viability, T/C [3]: 105% | viability, T/C [4]: 101% | viability, T/C [5]: 53.7% | viability, T/C [6]: 7.91% | viability, T/C [7]: 96% | viability, T/C [8]: 95.3% | viability, T/C [9]: 101% | viability, T/C [10]: 99.1% | viability, T/C [11]: 42.1% | viability, T/C [12]: 7.89% | viability, T/C [13]: 114% | viability, T/C [14]: 110% | viability, T/C [15]: 100% | viability, T/C [16]: 116% | viability, T/C [17]: 38.1% | viability, T/C [18]: 7.25% | viability, T/C [19]: 105% | viability, T/C [20]: 119% | viability, T/C [21]: 95.8% | viability, T/C [22]: 89.9% | viability, T/C [23]: 42.9% | viability, T/C [24]: 7.39% | viability, T/C [25]: 111% | viability, T/C [26]: 101% | viability, T/C [27]: 103% | viability, T/C [28]: 95.9% | viability, T/C [29]: 38.1% | viability, T/C [30]: 8.1% | viability, T/C [31]: 112% | viability, T/C [32]: 93.9% | viability, T/C [33]: 106% | viability, T/C [34]: 97.9% | viability, T/C [35]: 41.7% | viability, T/C [36]: 9.2%

CC1COCCN1c1cc(C2(S(C)(=N)=O)CC2)nc(-c2ccnc3[nH]ccc23)n1 (stereo not drawn) + COC1C(OC(N)=O)C(O)C(Oc2ccc3c(O)c(NC(=O)c4ccc(O)c(CC=C(C)C)c4)c(=O)oc3c2C)OC1(C)C
IC50 (second compound 0.0316 µM): 463 nM | IC50 (second compound 0.1 µM): 432 nM | IC50 (second compound 0.316 µM): 504 nM | IC50 (second compound 1 µM): 512 nM | IC50 (second compound 3.16 µM): 591 nM | IC50 (second compound 10 µM): 513 nM | viability, T/C [3]: 105% | viability, T/C [4]: 108% | viability, T/C [5]: 67.2% | viability, T/C [6]: 14.9% | viability, T/C (second compound 0.0316 µM, first compound 3.16 µM): 6.29% | viability, T/C (second compound 0.0316 µM, first compound 10 µM): 4.89% | viability, T/C [9]: 105% | viability, T/C [10]: 96.6% | viability, T/C [11]: 65.3% | viability, T/C [12]: 9.55% | viability, T/C (second compound 0.1 µM, first compound 3.16 µM): 5.9% | viability, T/C (second compound 0.1 µM, first compound 10 µM): 4.32% | viability, T/C [15]: 95.4% | viability, T/C [16]: 96.3% | viability, T/C [17]: 76.2% | viability, T/C [18]: 11.6% | viability, T/C (second compound 0.316 µM, first compound 3.16 µM): 7.22% | viability, T/C (second compound 0.316 µM, first compound 10 µM): 5.59% | viability, T/C [21]: 93.2% | viability, T/C [22]: 97.7% | viability, T/C [23]: 76.2% | viability, T/C [24]: 13.5% | viability, T/C (second compound 1 µM, first compound 3.16 µM): 10% | viability, T/C (second compound 1 µM, first compound 10 µM): 4.78% | viability, T/C [27]: 95% | viability, T/C [28]: 105% | viability, T/C [29]: 89.8% | viability, T/C [30]: 16.4% | viability, T/C (second compound 3.16 µM, first compound 3.16 µM): 6.8% | viability, T/C (second compound 3.16 µM, first compound 10 µM): 4.43% | viability, T/C [33]: 97.5% | viability, T/C [34]: 97.9% | viability, T/C [35]: 76.5% | viability, T/C [36]: 13.5% | viability, T/C (second compound 10 µM, first compound 3.16 µM): 6.73% | viability, T/C (second compound 10 µM, first compound 10 µM): 5.32%

COc1cccc(OCCCN)c1-c1cc(Nc2cnc(C#N)cn2)n[nH]1 + COC1C(OC(N)=O)C(O)C(Oc2ccc3c(O)c(NC(=O)c4ccc(O)c(CC=C(C)C)c4)c(=O)oc3c2C)OC1(C)C
IC50 (second compound 0.0316 µM): < 3.16 nM | IC50 (second compound 0.1 µM): < 3.16 nM | IC50 (second compound 0.316 µM): < 3.16 nM | IC50 (second compound 1 µM): 3.68 nM | IC50 (second compound 3.16 µM): 3.6 nM | IC50 (second compound 10 µM): 3.84 nM | viability, T/C [1]: 41.4% | viability, T/C [2]: 14.1% | viability, T/C [3]: 7.52% | viability, T/C [4]: 8.68% | viability, T/C [5]: 6.7% | viability, T/C [6]: 4.81% | viability, T/C [7]: 40.2% | viability, T/C [8]: 10.2% | viability, T/C [9]: 7.65% | viability, T/C [10]: 6.8% | viability, T/C [11]: 6.5% | viability, T/C [12]: 5.69% | viability, T/C [13]: 46.9% | viability, T/C [14]: 8.13% | viability, T/C [15]: 8.41% | viability, T/C [16]: 6.89% | viability, T/C [17]: 7.31% | viability, T/C [18]: 4.55% | viability, T/C [19]: 56.2% | viability, T/C [20]: 9.03% | viability, T/C [21]: 7.11% | viability, T/C [22]: 7.02% | viability, T/C [23]: 5.8% | viability, T/C [24]: 4.41% | viability, T/C [25]: 55.3% | viability, T/C [26]: 8.65% | viability, T/C [27]: 7.11% | viability, T/C [28]: 7.79% | viability, T/C [29]: 5.22% | viability, T/C [30]: 5.51% | viability, T/C [31]: 58.6% | viability, T/C [32]: 7.45% | viability, T/C [33]: 7.04% | viability, T/C [34]: 6.59% | viability, T/C [35]: 6.37% | viability, T/C [36]: 5.49%

Cn1ncnc1[C@H]1c2n[nH]c(=O)c3cc(F)cc(c23)N[C@@H]1c1ccc(F)cc1 + COC1C(OC(N)=O)C(O)C(Oc2ccc3c(O)c(NC(=O)c4ccc(O)c(CC=C(C)C)c4)c(=O)oc3c2C)OC1(C)C
IC50 (second compound 0.0316 µM): > 100 nM | IC50 (second compound 0.1 µM): > 100 nM | IC50 (second compound 0.316 µM): > 100 nM | IC50 (second compound 1 µM): > 100 nM | IC50 (second compound 3.16 µM): > 100 nM | IC50 (second compound 10 µM): > 100 nM | viability, T/C (second compound 0.0316 µM, first compound 0.000316 µM): 102% | viability, T/C (second compound 0.0316 µM, first compound 0.001 µM): 98.6% | viability, T/C [1]: 113% | viability, T/C [2]: 101% | viability, T/C [3]: 107% | viability, T/C [4]: 93% | viability, T/C (second compound 0.1 µM, first compound 0.000316 µM): 105% | viability, T/C (second compound 0.1 µM, first compound 0.001 µM): 99.3% | viability, T/C [7]: 101% | viability, T/C [8]: 103% | viability, T/C [9]: 97.8% | viability, T/C [10]: 106% | viability, T/C (second compound 0.316 µM, first compound 0.000316 µM): 112% | viability, T/C (second compound 0.316 µM, first compound 0.001 µM): 99.6% | viability, T/C [13]: 94.2% | viability, T/C [14]: 106% | viability, T/C [15]: 107% | viability, T/C [16]: 104% | viability, T/C (second compound 1 µM, first compound 0.000316 µM): 97.6% | viability, T/C (second compound 1 µM, first compound 0.001 µM): 93.3% | viability, T/C [19]: 94.8% | viability, T/C [20]: 97.9% | viability, T/C [21]: 109% | viability, T/C [22]: 105% | viability, T/C (second compound 3.16 µM, first compound 0.000316 µM): 89.6% | viability, T/C (second compound 3.16 µM, first compound 0.001 µM): 92.9% | viability, T/C [25]: 95.4% | viability, T/C [26]: 105% | viability, T/C [27]: 109% | viability, T/C [28]: 103% | viability, T/C (second compound 10 µM, first compound 0.000316 µM): 105% | viability, T/C (second compound 10 µM, first compound 0.001 µM): 101% | viability, T/C [31]: 101% | viability, T/C [32]: 96.3% | viability, T/C [33]: 102% | viability, T/C [34]: 96.1%

— PubChem BioAssay AID1963847 (Molecular Pharmacology Branch, DTP, NCI, 2024)
